We go through 144 compounds from the SangsterLogP compilation.

For orientation: logP means the decadic logarithm of the partition coefficient of the neutral form, usually between octanol and water. A low value points to a more hydrophilic compound.

Molecules are shown by their SMILES.

On to `CCOc1cccc(O)c1`, for which the logP was 1.98.

Regarding `NC(=O)NO`, the log partition coefficient (logP) is -1.8.

For `COc1ccccc1CO`, the logP stood at 1.13.

Take `CNC1(c2ccccc2Cl)CCCCC1=O` (centres undefined): the logP was 2.18.

Compound `Clc1ccccc1Cl` displayed a logP of 3.43.

On to `COc1ccccc1O`, for which the logP came to 1.32.

`CC(C)(C)CO` yielded a log partition coefficient (logP) of 1.31. The logP values of the last two compounds are within 0.2 log units of each other.

For the compound `O=C(O)COc1cccc(C(F)(F)F)c1`, the logP is 2.36.

Take `CC(=O)Oc1ccccc1C(=O)O`: the lipophilicity (logP) amounted to 1.19.

`NC(=O)c1ccccc1O`: the logP came to 1.28. This logP and that of the compound before are within 0.2 log units of each other.

`Cc1cccc2c([N+](=O)[O-])cc[n+]([O-])c12` showed a logP of 1.59.

Compound `CSc1nnc(CCC(C)C)c(=O)n1N` had a log partition coefficient (logP) of 1.85.

In turn, `CN(C)C(=O)Nc1ccccc1` displayed a logP of 0.98.

As to `CC/C(=C/c1ccccc1)[N+](=O)[O-]`, the logP was 2.86.

`CCCCC(C)=O` displayed a logP of 1.38.

In turn, `O=C1CN(/N=C/c2ccc([N+](=O)[O-])o2)C(=O)N1` displayed a log partition coefficient (logP) of -0.47.

As for `O=[N+]([O-])c1ccc(Br)cc1`, the log partition coefficient (logP) is 2.55.

Regarding `Nc1ccc(C(=O)O)c([N+](=O)[O-])c1`, the log partition coefficient (logP) came to 0.38.

With `[O-][n+]1cccc2ccccc21`, the logP was 0.36. The logP values of the last two compounds are within 0.2 log units of each other.

Compound `CNC(=O)Oc1ccc(I)cc1` returned a logP of 2.46.

Take `CN(c1ccccc1)c1ccccc1`: the logP was found to be 3.9.

In the case of `COC(=O)C(C#N)=NNc1ccc(Cl)cc1C(F)(F)F`, the lipophilicity (logP) came to 4.66.

On to `CCCCCC(=O)O`, for which the lipophilicity (logP) was 1.92.

The compound `c1ccc(Nc2ccccc2)cc1` returned a logP of 3.5.

Compound `O=C1CC2OCC=C3CN4CC[C@]56c7ccccc7N1C5[C@H]2[C@H]3C[C@H]46` (some centres undefined) returned a logP of 1.93.

For `CO/N=C/c1ccccc1`, the logP came out at 2.53.

`Oc1ccc(-c2ccccc2)cc1` gave a lipophilicity (logP) of 3.2.

`CCOc1ccc(OC(=O)NC)cc1` yielded a log partition coefficient (logP) of 1.63.

Compound `CN(C)C(=O)Nc1cccc(Cl)c1` gave a logP of 2.

As for `FC(F)(Cl)C(F)(F)Cl`, the lipophilicity (logP) turned out to be 2.82.

In the case of `Cc1cccc2c(C)cccc12`, the logP was found to be 4.38.

On to `Fc1ccc(F)cc1`, for which the logP came to 2.13.

The compound `N#Cc1ccc(NC=O)cc1` returned a logP of 1.08.

In the case of `O=Nc1c(O)ccc2ccccc12`, the lipophilicity (logP) worked out at 2.28.

Take `COC(=O)C(C#N)=NNc1cc(Cl)c(Cl)c(Cl)c1`: the logP was 5.22.

In turn, `CCN(CC)CCOC(=O)c1ccc(N)cc1` returned a log partition coefficient (logP) of 2.14.

`C[C@]12CCC(=O)C=C1CC[C@@H]1[C@@H]2C(=O)C[C@@]2(C)[C@H]1CC[C@]2(O)C(=O)CO` had a logP of 1.47.

Turning to `NS(=O)(=O)c1ccc(Cl)c(Cl)c1`, the log partition coefficient (logP) was found to be 1.44.

In turn, `CC(=O)c1ccccn1` displayed a lipophilicity (logP) of 0.85.

`CCCCCN` came in with a lipophilicity (logP) of 1.49.

The compound `c1ccc(N2CCCCC2)cc1` registered a logP of 2.98.

Compound `Nc1cccc2ncccc12` registered a logP of 1.16.

The compound `O=[N+]([O-])c1ccc(N=C=S)cc1` came in with a logP of 3.62.

In turn, `CCOc1ccc([N+](=O)[O-])cc1` returned a lipophilicity (logP) of 2.53.

The compound `C1CN2CCC1CC2` gave a logP of 1.38.

On to `N[C@@H](Cc1cnc[nH]1)C(=O)O`, for which the lipophilicity (logP) is -3.32.

As for `Nc1ccc(Cl)c(Cl)c1`, the log partition coefficient (logP) amounted to 2.69.

In turn, `Cc1ccc2cc(C)c(C)cc2c1` registered a lipophilicity (logP) of 4.73.

In turn, `Oc1ncnc2[nH]cnc12` gave a logP of -1.11.

`O=[N+]([O-])c1cc[n+]([O-])c2ccc(Cl)cc12`: the logP worked out at 1.41.

`C=CCBr`: the lipophilicity (logP) was 1.79.

As for `CCC(C)=O`, the log partition coefficient (logP) was 0.29.

`CCOC(=O)C=Cc1ccccc1` had a lipophilicity (logP) of 2.99.

In the case of `CCOC(=O)Nc1ccccc1`, the logP is 2.3.

In turn, `Clc1ccc(-c2ccccc2)cc1` yielded a log partition coefficient (logP) of 4.61.

Turning to `O=[N+]([O-])c1ccc(O)c([N+](=O)[O-])c1`, the log partition coefficient (logP) was found to be 1.67.

In turn, `CCCC(C)C1(CC)C(=O)NC(=O)NC1=O` (centres undefined) yielded a lipophilicity (logP) of 2.1.

Take `CNC(=O)Oc1ccccc1OC(C)C`: the logP worked out at 1.52.

On to `Cc1cnc(NS(=O)(=O)c2ccc(N)cc2)nc1`, for which the logP stood at 0.34.

As to `CCOC(=O)c1ccccn1`, the log partition coefficient (logP) was found to be 0.87.

Regarding `Fc1c(F)c(F)c(F)c(F)c1F`, the lipophilicity (logP) came to 2.55.

Turning to `NS(=O)(=O)c1cccc([N+](=O)[O-])c1`, the log partition coefficient (logP) stood at 0.55.

As for `c1ccc2c(c1)CCC2`, the logP stood at 3.18.

Take `CCN`: the lipophilicity (logP) is -0.13.

The compound `COc1cccc([N+](=O)[O-])c1` came in with a log partition coefficient (logP) of 2.16.

Turning to `Brc1ccc2[nH]ccc2c1`, the logP was 3.

In the case of `CCCN(CCC)N=O`, the lipophilicity (logP) is 1.36.

`O=C(CCNNC(=O)c1ccncc1)NCc1ccccc1` gave a lipophilicity (logP) of 0.87.

`CCCC(C)C1(CC)C(=O)NC(=S)NC1=O` (centres undefined) had a logP of 2.85.

`COc1nnc(C(C)C)c(=O)n1N` displayed a logP of -0.06.

Compound `O=[N+]([O-])c1cccc(Cl)c1` had a lipophilicity (logP) of 2.46.

Take `Cc1ccc2ccccc2c1`: the logP amounted to 3.86.

As to `Cn1c([N+](=O)[O-])cnc1COC(N)=O`, the logP was -0.38.

The compound `CCc1cccc(OC(=O)NC)c1` returned a lipophilicity (logP) of 2.2.

The compound `Nc1ccccc1Cl` showed a logP of 1.9.

On to `OCc1cccc(O)c1`, for which the lipophilicity (logP) was 0.49.

Turning to `CCCCOc1cc(C(=O)NCCN(CC)CC)c2ccccc2n1`, the log partition coefficient (logP) is 4.4.

On to `Nc1nc2c(ncn2[C@@H]2O[C@H](CO)[C@@H](O)[C@H]2O)c(=O)[nH]1`, for which the logP was -1.9.

Compound `CCCN(CCC)CCC` returned a logP of 2.79.

On to `CNC(=O)Oc1ccc(OC)cc1`, for which the lipophilicity (logP) was 1.2.

`CN(Cc1ccccc1)c1ccccc1`: the logP worked out at 4.22.

Regarding `CCC1(CC)C(=O)NC(=O)NC1=O`, the logP was determined as 0.65.

In the case of `OCC=Cc1ccccc1`, the logP came to 1.95.

In turn, `OC1CCCCC1` registered a logP of 1.23.

In the case of `CNC(=O)Oc1ccccc1I`, the log partition coefficient (logP) was 1.94.

In turn, `CCn1cc(C(=O)O)c(=O)c2ccc(C)nc21` returned a logP of 1.59.

`C=CCNCC=C` displayed a log partition coefficient (logP) of 1.11.

In turn, `O=[N+]([O-])/C=C/c1ccoc1` displayed a logP of 1.41.

`Brc1cnc2ccccc2c1`: the log partition coefficient (logP) is 3.03.

Consider `O=C1OC(=O)c2ccccc21`, for which the logP came out at 1.6.

`C=CCc1ccccc1OCC(O)CNC(C)C` (centres undefined) came in with a logP of 3.1.

In turn, `Cc1ccccc1C` had a lipophilicity (logP) of 3.12.

Regarding `NCCc1cccnc1`, the log partition coefficient (logP) is -0.11.

On to `CN1C(=O)C(=O)c2ccccc21`, for which the logP was determined as 0.58.

The compound `OC(c1ccccc1)C1CC1` (centres undefined) gave a log partition coefficient (logP) of 1.95.

In turn, `CC(=O)OCC1=C(C(=O)O)N2C(=O)[C@@H](NC(=O)Cc3cccs3)[C@H]2SC1` returned a logP of 0.

`CCCc1cc(NC(C)=O)cc(CCC)c1O`: the logP amounted to 3.16.

Consider `Cc1ccc(C)c(O)c1`, for which the logP worked out at 2.33.

With `O=c1ccn([C@H]2C[C@H](O)[C@@H](CO)O2)c(=O)[nH]1`, the lipophilicity (logP) was -1.51.

`NS(=O)(=O)c1cccc(Cl)c1`: the lipophilicity (logP) was determined as 1.29.

Turning to `CCc1ccccc1Cl`, the logP is 2.95.

For the compound `N#Cc1ccc(O)cc1`, the logP was 1.6.

`C=CCC1(CCCC)C(=O)NC(=O)NC1=O` displayed a lipophilicity (logP) of 2.31.

With `Clc1ccccc1`, the logP was 2.84.

In the case of `O=C(O)c1ccccc1I`, the logP was found to be 2.4.

`NC(=O)c1ccc(N)nc1` came in with a logP of 0.7.

`O=C(O)COc1ccccc1Br` had a logP of 2.04.

The compound `NCCc1c[nH]c2ccccc12` gave a log partition coefficient (logP) of 1.55.

In turn, `O=C(O)c1cccc2ccccc12` showed a lipophilicity (logP) of 3.1.

With `CC(=O)OC1C(Cl)C(Cl)C(Cl)C(Cl)C1Cl` (centres undefined), the log partition coefficient (logP) came out at 3.4.

As to `O=C(O)C(c1ccccc1)c1ccccc1`, the lipophilicity (logP) was 3.09.

`CC(=O)Nc1ccc([N+](=O)[O-])cc1` returned a log partition coefficient (logP) of 1.66.

As for `CCC(=O)c1cccc(OC(=O)NC)c1`, the logP came to 1.49.

As for `Oc1c(Br)cc(Br)cc1Br`, the logP is 4.13.

With `N#Cc1ccc(OCC(=O)O)cc1`, the logP stood at 0.93.

In turn, `O=C(O)c1ncccc1O` gave a lipophilicity (logP) of -1.27.

In turn, `CNC(C)Cc1ccccc1` (centres undefined) displayed a log partition coefficient (logP) of 2.07.

Regarding `O=Nc1ccc2ccccc2c1O`, the logP turned out to be 2.46.

For `c1ccc(Cc2ccccc2)cc1`, the logP turned out to be 4.14.

The compound `CNC(=O)Oc1ccc2c(c1)[C@]1(C)CCN(C)[C@@H]1N2C` showed a log partition coefficient (logP) of 1.58.

For the compound `CC1(C)SC2C(NC(=O)C(O)c3ccccc3)C(=O)N2C1C(=O)O` (centres undefined), the logP came out at 1.4.

For `C#C[C@]1(O)CC[C@H]2[C@@H]3CCc4cc(O)ccc4[C@H]3CC[C@@]21C`, the log partition coefficient (logP) is 3.67.

Turning to `Nc1ncnc2c1ncn2[C@@H]1O[C@H](CO)C[C@H]1O`, the logP is -0.61.

The compound `CCBr` returned a lipophilicity (logP) of 1.61.

The compound `CC(=O)C(C#N)=NNc1ccc(SC(F)(F)F)cc1` came in with a logP of 5.04.

On to `C=CBr`, for which the logP worked out at 1.57.

`CN(C)CCCN1c2ccccc2Sc2ccccc21` came in with a logP of 4.55.

`CC(=O)Nc1ccc(OCC(O)CNC(C)C)cc1` (centres undefined) registered a logP of 0.79.

`O=C(O)c1cc([N+](=O)[O-])ccc1O` returned a logP of 2.34.

`CC(C)NC(=O)C=Cc1ccc([N+](=O)[O-])o1`: the logP is 1.34.

Regarding `Nc1ncnc2[nH]cnc12`, the logP is -0.09.

`NC(=O)Cc1ccccn1` displayed a log partition coefficient (logP) of -0.65.

Regarding `O=C1CNC(=O)N1`, the logP was -1.69.

On to `O=C(O)c1cc(Br)ccc1O`, for which the logP came out at 3.23.

Take `O=[N+]([O-])c1ccc(Cl)cc1`: the logP is 2.39.

For `Cc1ccc2cc(C)ccc2c1`, the log partition coefficient (logP) was determined as 4.31.

For `COC(=O)C(C#N)=NNc1ccccc1C(F)(F)F`, the logP worked out at 3.7.

The compound `C#C` registered a logP of 0.37.

In turn, `N#C/C(=C\c1ccccc1)C(N)=O` yielded a lipophilicity (logP) of 1.56.

Compound `Cn1cnc([N+](=O)[O-])c1Sc1ncnc2nc[nH]c12` gave a logP of 0.1.

As to `O=C1c2ccccc2C(=O)C1c1ccccc1`, the logP was 2.9.

`c1ccnnc1`: the lipophilicity (logP) was -0.72.

As to `Oc1cccc(O)c1`, the logP was determined as 0.8.

`Nc1ncnc2c1ncn2[C@@H]1O[C@H](CO)[C@@H](O)[C@H]1O` displayed a logP of -1.05.
